Results reported in patent publication US7888351B2, “Organic compounds” (Novartis AG, priority 2006, dated 2011).

target: T1, human DPP-IV (Homo sapiens, UniProt P27487); test: Activity assay: inhibitory activity to human DPP-IV (fluorogenic substrate H-Gly-Pro-AMC); format: biochemical; settings: substrate H-Gly-Pro-AMC 10 μM, enzyme 10 pM, room temperature, 1 hour; read-out: hDPPIV IC50
T1 construct: Human DPP-IV consisting of amino acids 39 to 766 followed by a C-terminal Streptavidin-tag; Streptavidin-tag (C); made in house
Method: Various compounds of the invention were tested for their inhibitory activity to human DPP-IV.
Human DPP-IV consisting of amino acids 39 to 766 followed by a C-terminal Streptavidin-tag was expressed using the baculovirus system and purified to >80% purity. The enzyme was stored in 25 mM Tris buffer, pH 9.0, containing 300 mM NaCl at −80° C. The fluorogenic substrates H-Gly-Pro-AMC was purchased from Bachem AG (Bubendorf, Switzerland). The substrate was kept as a 5 mM stock solution in DMSO at −20° C. All other chemicals were purchased from Sigma (Buchs, Switzerland).
The assay buffer for the DPP-IV reaction was 25 mM Tris/HCl, pH 7.5, containing 140 mM NaCl, 10 mM KCl and 0.05% (w/v) CHAPS.
The test compounds were dissolved in 90% DMSO/10% H2O (v/v). Serial dilutions of the compounds from 3 mM to 0.03 μM in 90% DMSO/10% H2O (v/v) followed by a 1:33.3 dilution in assay buffer was done in 96-well polypropylene plates using a CyBio Dilus 8-channel pipetter (CyBio AG, Jena, Germany) with tip change after each pipetting step. The compound solutions as well as the substrate and the enzyme solutions were transferred to the assay plates (384-well black Cliniplate; cat. no. 95040020 Labsystems Oy, Finland) by means of a CyBi-Well 96-channel pipetter (CyBio AG, Jena, Germany).
Enzyme kinetics were measured by mixing 10 μl of a 3-fold concentrated substrate solution in assay buffer (final substrate concentration was 10 μM) with 10 μl of the corresponding compound solution. The reactions were initiated by addition of 10 μl of a 3-fold concentrated solution of the enzyme in assay buffer. Final enzyme (active site) concentrations in the assay was 10 pM for DPP-IV. Fluorescence product (AMC) formation was monitored for 1 hour at room temperature at 35 second intervals by measuring the fluorescence emission at 500 nm using an exitation wavelength of 350 nm in a TECAN Ultra fluorescence reader (TECAN, Maennedorf, Switzerland). The fluorescence in each well was excited by one flash per measurement. The Origin software package (Origin 7.5 Mircocal, Northampton, Mass., USA) was used to generate all graphs and to perform the IC50 calculations.

T1 sequence (P27487 39-766): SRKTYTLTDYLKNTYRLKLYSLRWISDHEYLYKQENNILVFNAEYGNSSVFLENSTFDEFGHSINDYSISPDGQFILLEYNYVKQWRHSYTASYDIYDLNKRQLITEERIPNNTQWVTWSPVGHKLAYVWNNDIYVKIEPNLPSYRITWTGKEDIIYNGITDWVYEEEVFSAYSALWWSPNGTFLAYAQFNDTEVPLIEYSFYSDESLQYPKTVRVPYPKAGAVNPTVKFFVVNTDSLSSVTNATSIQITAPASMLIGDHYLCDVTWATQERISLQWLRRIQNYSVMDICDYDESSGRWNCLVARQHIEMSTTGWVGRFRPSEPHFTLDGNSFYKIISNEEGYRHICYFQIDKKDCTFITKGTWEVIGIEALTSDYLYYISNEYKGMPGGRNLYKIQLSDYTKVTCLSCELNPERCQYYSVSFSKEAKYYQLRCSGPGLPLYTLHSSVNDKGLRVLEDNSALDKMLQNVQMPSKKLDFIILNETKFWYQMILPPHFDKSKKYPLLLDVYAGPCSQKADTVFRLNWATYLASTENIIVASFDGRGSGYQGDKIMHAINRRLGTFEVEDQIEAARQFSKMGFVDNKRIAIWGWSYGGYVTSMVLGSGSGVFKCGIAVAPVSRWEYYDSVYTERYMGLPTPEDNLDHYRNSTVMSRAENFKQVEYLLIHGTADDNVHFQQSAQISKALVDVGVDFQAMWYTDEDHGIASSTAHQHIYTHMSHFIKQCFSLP

SMILES | IC50 [nM]
Cc1cnc(C(=O)NCCS(=O)(=O)N2[C@@H]3CC[C@H]2C[C@H]([C@H](N)Cc2cc(F)c(F)cc2F)C3)cn1 [Example D1, 5-Methyl-pyrazine-2-carboxylic acid (2-{3-exo-[(R)-1-amino-2-(2,4,5-trifluoro-phenyl)-ethyl]-8-aza-bicyclo[3.2.1]octane-8-sulfonyl}-ethyl)-amide] | 7.7
N[C@H](Cc1cc(F)c(F)cc1F)[C@@H]1C[C@H]2CC[C@@H](C1)N2C(=O)CNC(=O)C1(O)CC1 [Example E7, 1-Hydroxy-cyclopropanecarboxylic acid (2-{3-exo-[(R)-1-amino-2-(2,4,5-trifluoro-phenyl)-ethyl]-8-aza-bicyclo[3.2.1]oct-8-yl}-2-oxo-ethyl)-amide] | 0.6
C[C@](O)(C(=O)N1[C@@H]2CC[C@H]1C[C@H]([C@H](N)Cc1cc(F)c(F)cc1F)C2)c1ccccc1 [Example G4, (R)-1-{3-exo-[(R)-1-Amino-2-(2,4,5-trifluoro-phenyl)-ethyl]-8-aza-bicyclo[3.2.1]oct-8-yl}-2-hydroxy-2-phenyl-propan-1-one] | 10
N[C@H](Cc1cc(F)c(F)cc1F)[C@@H]1C[C@H]2CC[C@@H](C1)N2C(=O)CS(=O)(=O)N1Cc2ccccc2C1 [Example H13, 1-{3-exo-[(R)-1-Amino-2-(2,4,5-trifluoro-phenyl)-ethyl]-8-aza-bicyclo[3.2.1]oct-8-yl}-2-(1,3-dihydro-isoindole-2-sulfonyl)-ethanone] | 7
